The source of these data is article PMC3001719, “The heme sensing response regulator HssR in Staphylococcus aureus but not the homologous RR23 in Listeria monocytogenes modulates susceptibility to the antimicrobial peptide plectasin” (BMC Microbiology, 2010).

Usually MIC stands for the smallest concentration in the dilution series that meets the test's criterion for growth inhibition. A lower MIC goes with inhibition by little substance.

The test system of test [1] is S. aureus 15981 wild type. Briefly: MIC, microbroth dilution. Format: cell-based, Staphylococcus aureus. Particulars: MHB pH 7.4, 5.0 × 10^5 CFU/ml, 18-24 h at 37°C, visual growth. As for the experimental part: (§1) Protamine was purchased from Sigma (P4020-5G). Plectasin, eurocin, novicidin, and novispirin G10 were supplied by Department of Antiinfective Discovery, Novozymes A/S. The host defence peptides were dissolved in 0.01% acetic acid/0.1% bovine serum albumin (Sigma, A7906).
(§2) Minimal inhibitory concentrations (MIC) of plectasin, eurocin, protamine, novicidin, and novispirin G10 were determined using a microbroth dilution method. Colonies from a BHI plate incubated overnight at 37 °C were suspended in MHB pH 7.4 to an absorbance at 546 nm of 0.11-0.12 at 546 nm (approx. 1.0 × 10^8 CFU/ml) and diluted in MHB to a concentration of 5.0 × 10^5 CFU/ml. Ninety μl of bacterial suspension was incubated with 10 μl of peptide solution in polypropylene 96-well plates (Nunc, 442587) for 18-24 h at 37°C. The peptide solutions were made fresh on the day of assay. The range of concentrations assayed were 0.25-256 μg/ml for plectasin and eurocin, 0.125-128 μg/ml for protamine and novispirin G10, and 0.031-32 μg/ml for novicidin. MIC was the lowest peptide concentration at which visual growth was inhibited.
(Broth dilution looks for growth in wells or tubes with falling amounts of substance.)

The test system of test [2] is S. aureus 15981 ΔTCS15 (hssRS) deletion mutant. Put plainly: MIC, microbroth dilution. Format: cell-based, Staphylococcus aureus. Particulars: MHB pH 7.4, 5.0 × 10^5 CFU/ml, 18-24 h at 37°C, visual growth. As for the experimental part:
as §1, §2

The subject of test [3] is S. aureus 8325-4 hssR (transduced mutant). Briefly: MIC, microbroth dilution. The following applies: transduced 8325-4 hssR mutant, MHB pH 7.4, 5.0 × 10^5 CFU/ml, 18-24 h at 37°C, visual growth. Format: cell-based, Staphylococcus aureus. As for the experimental part: as §1, §2
In test [4] the test system is S. aureus 8325-4 hssR::bursa transposon mutant. Put plainly: MIC, microbroth dilution. Format: cell-based, Staphylococcus aureus. Particulars: MHB pH 7.4, 5.0 × 10^5 CFU/ml, 18-24 h at 37°C, visual growth. As for the experimental part:
as §1, §2

Test [5] relates to S. aureus 8325-4 wild type. Put plainly: MIC, microbroth dilution. The following applies: MHB pH 7.4, 5.0 × 10^5 CFU/ml, 18-24 h at 37°C, visual growth. Format: cell-based, Staphylococcus aureus. As for the experimental part:
as §1, §2

The test system of test [6] is L. monocytogenes LO28 RR23 (rr23 insertion mutant). Briefly: MIC, microbroth dilution. Format: cell-based, Listeria monocytogenes. Particulars: MHB pH 7.4, 5.0 × 10^5 CFU/ml, 18-24 h at 37°C, visual growth. As for the experimental part:
as §1, §2

The subject of test [7] is L. monocytogenes LO28 wild type. Briefly: MIC, microbroth dilution. Format: cell-based, Listeria monocytogenes. Particulars: MHB pH 7.4, 5.0 × 10^5 CFU/ml, 18-24 h at 37°C, visual growth. As for the experimental part: as §1, §2
A further test relates to S. aureus. Put plainly: ATP leakage (intracellular and extracellular ATP, bioluminescence). Format: cell-based, Staphylococcus aureus. The following applies: 50 mM HEPES pH 7.0 with 0.2% glucose, vs peptide dilution buffer, two independent experiments; for ATP leakage: S. aureus, 1,000 μg/ml peptide. As for the experimental part:
(§3) L. monocytogenes and S. aureus were grown in TSB at 37°C. Bacteria were harvested (10 min at 3000 RPM) at mid-exponential phase (absorbance at 546 nm of 2.5 ± 0.2 and 1.0 ± 0.2 for S. aureus and L. monocytogenes, respectively), washed once in 50 mM potassium phosphate buffer pH 7.0 and once in 50 mM HEPES buffer pH 7.0. The pellet was resuspended in 50 mM HEPES pH 7.0 to a final absorbance at 546 nm of 10. Bacteria were stored on ice and used within 5 hours. […] ATP was determined using a bioluminescence kit (Sigma, FLAA-1KT) and a BioOrbit 1253 luminometer. Total ATP content was determined by rapidly permeabilising 20 μl cell suspension with 80 μl dimethyl sulfoxide. The cell suspension was diluted in 4.9 ml sterile water, and ATP content was determined in 100 μl of the preparation as described by the manufacturer. To determine the extracellular ATP concentration, the 20 μl cell suspension was mixed with 80 μl sterile water and analyzed as described above. Intracellular ATP concentrations were calculated by using the intracellular volumes of 0.85 and 1.7 μm^3 for S. aureus and L. monocytogenes, respectively. The number of cells in suspension was determined by plate spreading.

The next test deals with L. monocytogenes. Described as above. Format: cell-based, Listeria monocytogenes. The following applies: 50 mM HEPES pH 7.0 with 0.2% glucose, vs peptide dilution buffer; for ATP leakage: L. monocytogenes, 1,000 μg/ml peptide. As for the experimental part:
as §3

For test [8], the system named is S. aureus 8325-4 hssR mutant. Briefly: Growth in TSB with plectasin and/or hemin. Format: cell-based, Staphylococcus aureus. The following applies: hemin 4 μM, 37°C, with or without plectasin, hssR mutant. As for the experimental part: (§4) Overnight cultures of S. aureus were diluted to an absorbance at 600 nm of 0.05 in TSB with and without 4 μM hemin and/or 35 μg/ml plectasin and grown at 37°C. Measurements of the absorbance were made every 30 minutes.

Test [9] deals with S. aureus 8325-4 wild type. Briefly: Growth in TSB with plectasin and/or hemin. Format: cell-based, Staphylococcus aureus. Particulars: hemin 4 μM, 37°C, absorbance at 600 nm. As for the experimental part: as §4
The subject of test [10] is hrtAB efflux system expression. The following applies: exposure to hemin, transcriptional activation by HssR; cited from earlier work. The text has this: Both HrtAB and HssRS are required for growth of S. aureus in hemin [14].
The test system of test [11] is S. aureus wild type and response regulator mutants. Briefly: Antibiotic susceptibility, commercial MIC technique (Trek). Format: cell-based, Staphylococcus aureus. Particulars: dehydrated antimicrobials in microtitre wells, data not shown. As for the experimental part:
(§5) Antimicrobial susceptibility to ampicillin, gentamicin, sulfa/trimethoprim, rifampicin, tetracycline, amoxy/clavulan, cephalotin, clindamycin, enrofloxacin, fusidic acid and oxacillin was performed with a commercially available MIC technique using dehydrated antimicrobials in microtitre wells (Trek Diagnostic Systems Ltd., UK).

Test [12] deals with L. monocytogenes wild type and response regulator mutant. The description is as above. Format: cell-based, Listeria monocytogenes. The following applies: dehydrated antimicrobials in microtitre wells, data not shown. As for the experimental part:
as §5

Test [13] has as its system S. aureus 8325-4 hssR::bursa/pRMC2-hssRS (complementation of hssR transposon mutant). Put plainly: MIC, microbroth dilution. Format: cell-based, Staphylococcus aureus. Particulars: 8325-4 hssR::bursa/pRMC2-hssRS complemented mutant; microbroth dilution, MHB pH 7.4, 5.0 × 10^5 CFU/ml, 18-24 h at 37°C, visual growth. As for the experimental part:
as §1, §2

Test [14] relates to plasmid DNA (pBluescript II SK+). Briefly: DNA-binding analysis by in vitro gel retardation. The following applies: 100 ng plasmid DNA with increasing amounts of peptide, 1 h at room temperature, data not shown. As for the experimental part: Gel retardation analysis were performed as described by Nan et al by mixing 100 ng of plasmid DNA (pBluescript II SK^+(Stratagene)) with increasing amounts of peptide in 20 μl binding buffer (5% glycerol, 10 mM Tris, 1 mM EDTA, 1 mM dithiothreitol, 20 mM KCL and 50 μg ml^-1 bovine serum albumin). Reaction mixtures were incubated 1 h at room temperature and subjected to 1% agarose gel electrophoresis and visualised using ethidium bromide.

Regarding novicidin, the MIC in test [1], in test [2], in [3], in test [4], in [5] and in test [6] was 1 µg/mL throughout. The MIC in test [7] was 1 µg/mL. Also, the ATP leakage result in the test on S. aureus and in the test with L. monocytogenes was “increased ATP leakage” in each case.

Regarding protamine, the MIC in [1], in test [2], in test [3], in test [4], in test [5] and in test [6] was 16 µg/mL each time. In test [7], this compound yielded an MIC of 16 µg/mL. The ATP leakage result with S. aureus and with L. monocytogenes was “increased ATP leakage” each time.

On to hemin, for which the “Growth in the presence of hemin” value in test [8] is “almost completely inhibited”; in test [9] it was “only affected by plectasin (35 μg/ml) and not hemin”. Moreover, the “Increase of expression of hrtAB efflux system” value in test [10] is on record as 45 fold.

For novispirin G10, the MIC was above 128 µg/mL in test [1], 128 µg/mL in test [5], 16 µg/mL in test [6] and 16 µg/mL in test [7].

`CC(=O)O[C@H]1C[C@@]2(C)[C@@H](C[C@@H](O)[C@H]3[C@@]4(C)CC[C@@H](O)[C@@H](C)[C@@H]4CC[C@@]32C)/C1=C(\CCC=C(C)C)C(=O)O` [fusidic acid]: in test [11], the “Change in MIC, wild type vs response regulator mutants” value was “No change in MIC values”. Also, the “Change in MIC, wild type vs response regulator mutant” value in test [12] is “No change in MIC values”.

For the compound eurocin, the MIC in test [1] amounted to 8 µg/mL; in test [2], 32 µg/mL; in test [3], 64 µg/mL; in test [4], 64 µg/mL; in test [13], 32 µg/mL; in test [5] it was 32 µg/mL. In test [7], this compound yielded an MIC of 128 µg/mL. Besides, the “ATP leakage (intracellular ATP concentration)” value with S. aureus (S. aureus, 500 μg/ml peptide) was “remained at the same level as the controls”; in the test on L. monocytogenes (L. monocytogenes, 500 μg/ml peptide) it was “remained at the same level as the controls”. The “Binding to DNA” value in test [14] is “unable to demonstrate binding”.

As to `CNC(C)C1CCC(N)C(OC2C(N)CC(N)C(OC3OCC(C)(O)C(NC)C3O)C2O)O1` (centres unmarked) [gentamicin], in test [11], the “Change in MIC, wild type vs response regulator mutants” value is “No change in MIC values”. In [12], the “Change in MIC, wild type vs response regulator mutant” value is “No change in MIC values”.

For the compound `CN(C)[C@@H]1C(O)=C(C(N)=O)C(=O)[C@@]2(O)C(O)=C3C(=O)c4c(O)cccc4[C@@](C)(O)[C@H]3C[C@@H]12` [tetracycline], in test [11], the “Change in MIC, wild type vs response regulator mutants” value is reported as “No change in MIC values”. The “Change in MIC, wild type vs response regulator mutant” value in [12] is given as “No change in MIC values”.

Take `CCC[C@@H]1C[C@@H](C(=O)N[C@@H]([C@H]2O[C@H](SC)[C@H](O)[C@@H](O)[C@H]2O)[C@H](C)Cl)N(C)C1` [clindamycin]: the “Change in MIC, wild type vs response regulator mutants” value in test [11] was “No change in MIC values”. Moreover, the “Change in MIC, wild type vs response regulator mutant” value in test [12] was “No change in MIC values”.

`CC(=O)OCC1=C(C(=O)O)N2C(=O)[C@@H](NC(=O)Cc3cccs3)[C@H]2SC1` [cephalotin]: in test [11], the “Change in MIC, wild type vs response regulator mutants” value was “No change in MIC values”. Moreover, the “Change in MIC, wild type vs response regulator mutant” value in test [12] is listed as “No change in MIC values”.

With `CO[C@H]1/C=C/O[C@@]2(C)Oc3c(C)c(O)c4c(O)c(c(/C=N/N5CCN(C)CC5)c(O)c4c3C2=O)NC(=O)/C(C)=C\C=C\[C@H](C)[C@H](O)[C@@H](C)[C@@H](O)[C@@H](C)[C@H](OC(C)=O)[C@@H]1C` [rifampicin], the “Change in MIC, wild type vs response regulator mutants” value in test [11] was “No change in MIC values”. Besides, the “Change in MIC, wild type vs response regulator mutant” value in test [12] is given as “No change in MIC values”.

On to `CCN1CCN(c2cc3c(cc2F)c(=O)c(C(=O)O)cn3C2CC2)CC1` [enrofloxacin], for which the “Change in MIC, wild type vs response regulator mutants” value in test [11] is recorded as “No change in MIC values”. Besides, the “Change in MIC, wild type vs response regulator mutant” value in test [12] is “No change in MIC values”.

Consider `Cc1onc(-c2ccccc2)c1C(=O)N[C@@H]1C(=O)N2[C@@H]1SC(C)(C)[C@@H]2C(=O)O` [oxacillin], for which the “Change in MIC, wild type vs response regulator mutants” value in test [11] is “No change in MIC values”. Moreover, the “Change in MIC, wild type vs response regulator mutant” value in test [12] is recorded as “No change in MIC values”.

`CC1(C)S[C@@H]2[C@H](NC(=O)[C@H](N)c3ccccc3)C(=O)N2[C@H]1C(=O)O` [ampicillin]: the “Change in MIC, wild type vs response regulator mutants” value in test [11] is on record as “No change in MIC values”. In addition, in test [12], the “Change in MIC, wild type vs response regulator mutant” value is given as “No change in MIC values”.
